This passage reports IC50 results from patent publication US7781591B2, “Substituted 3-cyanopyridines as protein kinase inhibitors” (Wyeth LLC, priority 2006, dated 2010).

The target in the assay is T1, human PKCθ full length enzyme (Homo sapiens, UniProt Q04759).
T1 construct: human PKCθ full length enzyme (Panvera Cat# P2996); purchased Panvera P2996
As to the kind of experiment: PKCθ IMAP assay (fluorescence polarization). It counts as biochemical. For orientation: Polarisation of emitted light reports the rotation of a fluorescent probe.

Where [1] appears, read: human PKCθ full length enzyme, IMAP, average value, read-out: IC50 PKCθ IMAP.

Like-named read-outs stand apart in the source and are kept apart here.

T1 sequence (Q04759 whole entry): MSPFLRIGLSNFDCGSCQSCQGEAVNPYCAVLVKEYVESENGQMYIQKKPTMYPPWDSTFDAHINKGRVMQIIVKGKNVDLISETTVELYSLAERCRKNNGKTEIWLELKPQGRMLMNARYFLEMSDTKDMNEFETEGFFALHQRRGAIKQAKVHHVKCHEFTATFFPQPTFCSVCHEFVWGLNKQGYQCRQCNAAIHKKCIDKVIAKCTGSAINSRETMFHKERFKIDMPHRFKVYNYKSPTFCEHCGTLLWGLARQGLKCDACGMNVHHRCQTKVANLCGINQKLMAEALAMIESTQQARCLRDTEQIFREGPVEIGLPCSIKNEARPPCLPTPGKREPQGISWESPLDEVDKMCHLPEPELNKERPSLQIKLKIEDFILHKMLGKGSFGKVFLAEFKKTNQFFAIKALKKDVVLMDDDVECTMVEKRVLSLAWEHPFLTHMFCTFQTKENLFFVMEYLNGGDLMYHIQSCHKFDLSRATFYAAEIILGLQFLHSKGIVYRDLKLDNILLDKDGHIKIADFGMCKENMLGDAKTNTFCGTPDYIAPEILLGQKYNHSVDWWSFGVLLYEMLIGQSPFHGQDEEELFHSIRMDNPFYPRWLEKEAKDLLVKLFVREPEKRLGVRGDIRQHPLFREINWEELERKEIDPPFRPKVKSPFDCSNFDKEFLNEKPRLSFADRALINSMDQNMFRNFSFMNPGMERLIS

In general, IC50 refers to the midpoint of a concentration-inhibition curve. Take `Cc1c(Nc2c(C#N)cncc2-c2cc(C=O)co2)ccc2[nH]ccc12` [Compound 517, 5-(4-formyl-2-furyl)-4-[(4-methyl-1H-indol-5-yl)amino]nicotinonitrile]: under setting [1], the concentration for half-maximal inhibition (IC50) turned out to be 8 nM.

Turning to `Cc1c(Nc2c(C#N)cncc2-c2csc(CN3CCN(C)CC3)c2)ccc2[nH]ccc12` [Compound 518, 4-[(4-methyl-1H-indol-5-yl)amino]-5-{5-[(4-methylpiperazin-1-yl)methyl]-3-thienyl}nicotinonitrile], under setting [1], the IC50 is 5 nM.

For `Cc1c(Nc2c(C#N)cncc2-c2cccnc2)ccc2[nH]ccc12` [Compound 519, 4-[(4-methyl-1H-indol-5-yl)amino]-3,3′-bipyridine-5-carbonitrile], the IC50 under setting [1] came out at 36 nM.

As to `CN1CCN(CCOc2ccc(-c3cncc(C#N)c3Nc3ccc4[nH]ccc4c3)cc2)CC1` [Compound 520, 4-(1H-indol-5-ylamino)-5-{4-[2-(4-methylpiperazin-1-yl)ethoxy]phenyl}nicotinonitrile], the IC50 under setting [1] was 73 nM.

Molecule `Cc1c(Nc2c(C#N)cncc2-c2cc3cc(CN4CCN(C)CC4)ccc3s2)ccc2[nH]ccc12` [Compound 521, 4-[(4-methyl-1H-indol-5-yl)amino]-5-{5-[(4-methylpiperazin-1-yl)methyl]-1-benzothien-2-yl}nicotinonitrile] yielded an IC50 of 1 nM.

In the case of `COc1ccc(-c2cncc(C#N)c2Nc2cnc3[nH]ccc3c2Cl)cc1OC` [Compound 522, 4-[(4-chloro-1H-pyrrolo[2,3-b]pyridin-5-yl)amino]-5-(3,4-dimethoxyphenyl)nicotinonitrile], the IC50 under setting [1] stood at 20 nM.

As to `COc1ccc(-c2c[n+]([O-])cc(C#N)c2Nc2ccc3[nH]ccc3c2)cc1OC` [Compound 523, 5-(3,4-dimethoxyphenyl)-4-(1H-indol-5-ylamino)nicotinonitrile 1-oxide], under setting [1], the IC50 came out at 737 nM.

On to `COc1ccc(-c2cncc(C#N)c2N[C@H]2CC[C@H](N)CC2)cc1OC` [Compound 524, 4-[(trans-4-aminocyclohexyl)amino]-5-(3,4-dimethoxyphenyl)nicotinonitrile], for which, under setting [1], the IC50 was 4100 nM.

With `CCCCNC(=O)Nc1ccc(-c2cncc(C#N)c2Nc2ccc3[nH]ccc3c2C)cc1` [Compound 525, 1-butyl-3-(4-{5-cyano-4-[(4-methyl-1H-indol-5-yl)amino]pyridin-3-yl}phenyl)urea], the IC50 under setting [1] worked out at 7 nM.

With `COC(=O)Nc1ccc(-c2cncc(C#N)c2Nc2ccc3[nH]ccc3c2C)cc1` [Compound 526, methyl (4-{5-cyano-4-[(4-methyl-1H-indol-5-yl)amino]pyridin-3-yl}phenyl)carbamate], the IC50 under setting [1] stood at 10 nM.

Regarding `Cc1c(Nc2c(C#N)cncc2-c2ccc(NC(=O)OCc3ccccc3)c(F)c2)ccc2[nH]ccc12` [Compound 527, benzyl (4-{5-cyano-4-[(4-methyl-1H-indol-5-yl)amino]pyridin-3-yl}-2-fluorophenyl)carbamate], under setting [1], the IC50 was determined as 27 nM.

For the molecule `COc1ccc(COC(=O)Nc2ccc(-c3cncc(C#N)c3Nc3ccc4[nH]ccc4c3C)cc2F)cc1` [Compound 528, 4-methoxybenzyl (4-{5-cyano-4-[(4-methyl-1H-indol-5-yl)amino]pyridin-3-yl}-2-fluorophenyl)carbamate], the IC50 under setting [1] is 40 nM.

Consider `Cc1c(Nc2c(C#N)cncc2-c2cc3cc(CN4CCN(C)CC4)ccc3o2)cc(Cl)c2[nH]ccc12` [Compound 529, 4-[(7-chloro-4-methyl-1H-indol-5-yl)amino]-5-{5-[(4-methylpiperazin-1-yl)methyl]-1-benzofuran-2-yl}nicotinonitrile], for which the IC50 under setting [1] came to 2 nM.

As for `COc1ccc(-c2cncc(C#N)c2Nc2ccc(C)c3cc[nH]c23)cc1OC` [Compound 530, 5-(3,4-dimethoxyphenyl)-4-[(4-methyl-1H-indol-7-yl)amino]nicotinonitrile], under setting [1], the IC50 is 179 nM.

Consider `Cc1c(Nc2c(C#N)cncc2-c2cc3ccccc3o2)cc(Cl)c2[nH]ccc12` [Compound 531, 5-(1-benzofuran-2-yl)-4-[(7-chloro-4-methyl-1H-indol-5-yl)amino]nicotinonitrile], for which, under setting [1], the IC50 stood at 20 nM.

On to `Cc1c(Nc2c(C#N)cncc2-c2ccc(OCCCl)cc2)cc(Cl)c2[nH]ccc12` [Compound 533, 5-[4-(2-chloroethoxy)phenyl]-4-[(7-chloro-4-methyl-1H-indol-5-yl)amino]nicotinonitrile], for which the IC50 under setting [1] came to 51 nM.

Regarding `Cc1c(Nc2c(C#N)cncc2-c2ccc(OCCN(C)C)cc2)cc(Cl)c2[nH]ccc12` [Compound 534, 4-[(7-chloro-4-methyl-1H-indol-5-yl)amino]-5-{4-[2-(dimethylamino)ethoxy]phenyl}nicotinonitrile], the IC50 under setting [1] worked out at 17 nM.

As for `Cc1c(Nc2c(C#N)cncc2-c2ccc(OCCN3CCN(C)CC3)cc2)cc(Cl)c2[nH]ccc12` [Compound 535, 4-[(7-chloro-4-methyl-1H-indol-5-yl)amino]-5-{4-[2-(4-methylpiperazin-1-yl)ethoxy]phenyl}nicotinonitrile], the IC50 under setting [1] was found to be 38 nM.

Consider `Cc1c(Nc2c(C#N)cncc2-c2cc3cc(CN4CCN(C(=O)OC(C)(C)C)CC4)ccc3o2)ccc2[nH]ccc12` [Compound 536, tert-butyl 4-[(2-{5-cyano-4-[(4-methyl-1H-indol-5-yl)amino]pyridin-3-yl}-1-benzofuran-5-yl)methyl]piperazine-1-carboxylate], for which, under setting [1], the IC50 came out at 58 nM.

With `Cc1c(Nc2c(C#N)cncc2-c2cnc(C=O)n2C)ccc2[nH]ccc12` [Compound 537, 5-(2-formyl-1-methyl-1H-imidazol-5-yl)-4-[(4-methyl-1H-indol-5-yl)amino]nicotinonitrile], the IC50 under setting [1] stood at 23 nM.

For `Cc1c(Nc2c(C#N)cncc2-c2cc3cc(CN4CCN(S(C)(=O)=O)CC4)ccc3o2)ccc2[nH]ccc12` [Compound 538, 4-[(4-methyl-1H-indol-5-yl)amino]-5-(5-{[4-(methylsulfonyl)piperazin-1-yl]methyl}-1-benzofuran-2-yl)nicotinonitrile], the IC50 under setting [1] is 15 nM.

With `Cc1c(Nc2c(C#N)cncc2-c2cnc(CN3CCN(C)CC3)n2C)ccc2[nH]ccc12` [Compound 539, 4-[(4-methyl-1H-indol-5-yl)amino]-5-{1-methyl-2-[(4-methylpiperazin-1-yl)methyl]-1H-imidazol-5-yl}nicotinonitrile], the IC50 under setting [1] was determined as 36 nM.

For the molecule `Cc1c(Nc2c(C#N)cncc2-c2cc3cc(CN4CCNCC4)ccc3o2)ccc2[nH]ccc12` [Compound 540, 4-[(4-methyl-1H-indol-5-yl)amino]-5-[5-(piperazin-1-ylmethyl)-1-benzofuran-2-yl]nicotinonitrile], under setting [1], the IC50 came to 5 nM.

Regarding `Cc1c(Nc2c(C#N)cncc2-c2nccs2)ccc2[nH]ccc12` [Compound 541, 4-[(4-methyl-1H-indol-5-yl)amino]-5-(1,3-thiazol-2-yl)nicotinonitrile], under setting [1], the IC50 worked out at 7 nM.

For the molecule `Cc1c(Nc2c(C#N)cncc2-c2nccn2C)ccc2[nH]ccc12` [Compound 542, 5-(1-methyl-1H-imidazol-2-yl)-4-[(4-methyl-1H-indol-5-yl)amino]nicotinonitrile], under setting [1], the IC50 was determined as 42 nM.

Regarding `Cc1c(Nc2c(C#N)cncc2-c2cscn2)ccc2[nH]ccc12` [Compound 543, 4-[(4-methyl-1H-indol-5-yl)amino]-5-(1,3-thiazol-4-yl)nicotinonitrile], the IC50 under setting [1] was 8 nM.

`COc1ccc(-c2cncc(C#N)c2Nc2cccc3cc[nH]c23)cc1OC` [Compound 544, 5-(3,4-dimethoxyphenyl)-4-(1H-indol-7-ylamino)nicotinonitrile]: under setting [1], the IC50 came to 737 nM.

On to `COc1ccc(-c2cncc(C#N)c2Nc2ccc3[nH]ccc3c2F)cc1OC` [Compound 546, 5-(3,4-dimethoxyphenyl)-4-[(4-fluoro-1H-indol-5-yl)amino]nicotinonitrile], for which the IC50 under setting [1] came out at 5 nM.

As for `Cc1c(Nc2c(C#N)cncc2-c2cc3cc(CN4CCNCC4)ccc3o2)cc(Cl)c2[nH]ccc12` [Compound 547, 4-[(7-chloro-4-methyl-1H-indol-5-yl)amino]-5-[5-(piperazin-1-ylmethyl)-1-benzofuran-2-yl]nicotinonitrile], under setting [1], the IC50 turned out to be 4 nM.

`Cc1c(Nc2c(C#N)cncc2-c2cc3cc(CN4CCN(C(=O)OC(C)(C)C)CC4)ccc3o2)cc(Cl)c2[nH]ccc12` [Compound 548, tert-butyl 4-[(2-{4-[(7-chloro-4-methyl-1H-indol-5-yl)amino]-5-cyanopyridin-3-yl}-1-benzofuran-5-yl)methyl]piperazine-1-carboxylate]: under setting [1], the IC50 came to 406 nM.

Take `COc1ccc(-c2cncc(C#N)c2Nc2ccc3[nH]c(C)cc3c2C)cc1OC` [Compound 549, 5-(3,4-dimethoxyphenyl)-4-[(2,4-dimethyl-1H-indol-5-yl)amino]nicotinonitrile]: the IC50 under setting [1] was found to be 10 nM.

With `Cc1c(Nc2c(C#N)cncc2-c2ccccc2CN(C)C)ccc2[nH]ccc12` [Compound 550, 5-{2-[(dimethylamino)methyl]phenyl}-4-[(4-methyl-1H-indol-5-yl)amino]nicotinonitrile], under setting [1], the IC50 turned out to be 205 nM.

As for `COc1ccc(C=O)cc1-c1cncc(C#N)c1Nc1ccc2[nH]ccc2c1C` [Compound 551, 5-(5-formyl-2-methoxyphenyl)-4-[(4-methyl-1H-indol-5-yl)amino]nicotinonitrile], the IC50 under setting [1] stood at 28 nM.

Consider `COc1ccc(CN2CCN(C)CC2)cc1-c1cncc(C#N)c1Nc1ccc2[nH]ccc2c1C` [Compound 552, 5-{2-methoxy-5-[(4-methylpiperazin-1-yl)methyl]phenyl}-4-[(4-methyl-1H-indol-5-yl)amino]nicotinonitrile], for which the IC50 under setting [1] was 84 nM.

On to `CCN1CCN(Cc2ccc3oc(-c4cncc(C#N)c4Nc4ccc5[nH]ccc5c4C)cc3c2)CC1` [Compound 553, 5-{5-[(4-ethylpiperazin-1-yl)methyl]-1-benzofuran-2-yl}-4-[(4-methyl-1H-indol-5-yl)amino]nicotinonitrile], for which the IC50 under setting [1] was 0.48 nM.

`Cc1c(Nc2c(C#N)cncc2-c2cc3cc(CN4CC[N+](C)([O-])CC4)ccc3o2)ccc2[nH]ccc12` [Compound 554, 4-[(4-methyl-1H-indol-5-yl)amino]-5-{5-[(4-methyl-4-oxidopiperazin-1-yl)methyl]-1-benzofuran-2-yl}nicotinonitrile]: it took 6 nM to reach half-maximal inhibition (IC50).
